Reference: US20210223229A1, “IMMUNE FUNCTION INSPECTION METHOD, CANCER PATIENT CATEGORIZATION METHOD, CANCER TREATMENT EFFICACY PREDICTION METHOD, AGENT FOR INCREASING INTRACELLULAR CALCIUM ION CONCENTRATION, AGENT FOR INCREASING SELECTIVE FUNCTION OF EFFECTOR MEMORY (EM) AND EFFECTOR (EFF) IN TUMOR TISSUE, AND METHOD FOR …” (NATIONAL UNIVERSITY CORPORATION OKAYAMA UNIVERSITY, priority 2016, published 2021)
“Also recorded” adds a separate entry of the source.

Legend:
[1] = system: glucose transporter (Glut1) in CD8TIL; experiment: Change in Glut1 expression over time in CD8TIL, MethA tumor; type: in vivo, BALB/c; details: after 6-hour in-vitro culture; metformin 5 mg/mL from Day 7, 3 days of treatment
Protocol: Syngeneic tumor MethA (2×10^6) was intradermally injected to 8-week old BALB/c, and administration of metformin (5 mg/mL) and N-acetylcysteine (NAC, 10 mg/mL) was started from Day 7. Three days after the treatment, the tumor-infiltrating T cells (TIL) were separated, and cultured for 0, 1, 3 and 6 hours at 37° C. Therefore, the cells were stained with CD3, CD8, and glucose transporter (Glut1) antibodies, followed by analysis using a flow cytometer (FIG. 8).

[2] = system: glucose transporter (Glut1) in tumor-infiltrating CD8T cells; experiment: Glucose transporter (Glut1) expression in tumor-infiltrating CD8T cells, MethA tumor; type: in vivo, BALB/c; details: metformin 5 mg/mL free-water-drinking from Day 7; Day 10 and Day 13; with and without PMA stimulation
Protocol: Tumor (MethA) 2×10^6 was intradermally injected to 8-week old BALB/c, and metformin (5 mg/mL) was continuously given by free-water-drinking from Day 7. Three and 6 days after the treatment (Day 10 and Day 13), the tumor-infiltrating T cells (TIL) were separated and stained with anti-CD8 antibody, and anti-glucose transporter (Glut1) antibody. Further, after stimulating culture in the presence of PMA/Ionomycin/Monencin for 6 hours, the cells were stained with anti-CD8 antibody and anti-glucose transporter (Glut1) antibody, followed by analysis using a flow cytometer.

[3] = system: Glut1-positive tumor-infiltrating CD8T cells; experiment: Multifunctionality of CD8T cells expressing Glut1, MethA tumor; type: in vivo, BALB/c
Protocol: Tumor (MethA) 2×10^6 was intradermally injected to 8-week old BALB/c, and metformin (5 mg/mL) was continuously given by free-water-drinking from Day 7. Three and 6 days after the treatment (Day 10 and Day 13), the tumor-infiltrating T cells (TIL) were separated. After stimulating culture in the presence of PMA/Ionomycin/Monencin for 6 hours, the cells were stained with anti-CD8 antibody, anti-glucose transporter (Glut1) antibody, and intracellular cytokines (IL-2/TNFα/IFNγ), followed by analysis using a flow cytometer. […] The proportion is increased by metformin administration. These facts indicate that, by confirming the Glut1 expression level in the tumor-infiltrating CD8T cells using a flow cytometer, it is possible to assume the immune status without performing a multifunctionality test. Further, by performing immunotherapy such as metformin administration, and confirming that the Glut1 expression level was increased in the CD8T cells by the therapy, it is possible to determine that the treatment had immune effects.

[4] = system: peripheral blood CD8T cells of cancer patients; experiment: Multifunctionality of human CD8T cells under a low glucose condition (intracellular cytokine staining, FACS); type: cell-based; details: for number of CD8T cells producing three cytokines (IL-2, TNFα, IFNγ): 10 μM metformin 6 hours pre-culture, PMA/ionomycin stimulation
Protocol: FIG. 4: Analysis of multifunctionality of human CD8T-cells under a low glucose condition. Peripheral blood lymphocytes (PBMC) w/o 10 μM metformin were cultured for 6 hours. Subsequently, after washing, the cells were cultured for 12 hours at each glucose concentration. At the final 6 hours, the cells were cultured with PMA stimulation. After the culture, intracellular cytokine was stained with an antibody, followed by FACS analysis. It was confirmed that the multifunctionality of peripheral blood CD8T cells of cancer patients were recovered by being treated with metformin in advance, even in a low glucose environment, i.e., 1.0 mM.
Cryopreserved human PBMC obtained from cancer patients were thawed and cultured for 6 hours in the presence of FCS(−)RPMI 10 μM metformin. After the culture, the cells were separated and washed with FCS(−)Glc(−)RPMI. After the washing, the cells were subjected to stimulating culture for 6 hours by 50 ng/mL PMA and 2 ionomycin using RPMI containing 0.1, 1, 10 mM Glc in the presence of 1 monensin. The cells were separated and the cell-surface molecules were stained with antihuman CD8 antibody APC-Cy7, followed by a cell permeabilization treatment. The intracellular cytokines were stained with antihuman IL-2 antibody APC and antihuman TNFα antibody BV510, and […] IFNγ antibody FITC, followed by analysis using a flow cytometer (FIG. 4).

[5] = system: mouse CD8T cells; experiment: Detection of intracellular calcium ion in mouse tumor-infiltrating and lymph node lymphocytes after metformin administration; type: in vivo, C57BL/6 mice; details: 5 mg/mL metformin free-water-drinking for 7 days
Protocol: 2×10^5 MO-5 (OVA-expressing B16 melanoma cell strain) was intradermally inoculated to C57BL/6 mice; 7 days after the transplantation, free-water-drinking oral administration of 5 mg/mL metformin was started. Seven days after the administration (14 days after the transplantation), the lymph node (LN) and the tumor tissue (Tumor) were excised, and the tumor-infiltrating lymphocytes and lymphocytes of the lymph node were collected. After the cells were washed with FCS(−)RPMI, the cells were stained using antimouse CD3 antibody BV510, antimouse CD8 antibody APC-Cy7, 1 Fluo4, and 1 Fura Red for 30 minutes at 37° C. After the staining, the cells were washed with FCS(−)RPMI warmed at 37° C., followed by measurement of the background of intracellular calcium ions by a flow cytometer for 30 seconds. After the background measurement, the cells were immediately stimulated by 100 ng/ml PMA and 5 ionomycin, and the increase in calcium ions in the mouse CD8T cells by stimulation was measured (FIG. 1).

[6] = system: human CD8T cells; experiment: Calcium concentration in peripheral blood CD8T cells of cancer patients before and after metformin administration; type: in vivo; details: stage I, stage IIa and stage IV cancer patients; before vs after metformin
Protocol: In stage I, stage IIa, and stage IV cancer patients, changes in calcium concentration increase by PMA stimulation before and after metformin administration were measured. Human PBMC (human peripheral blood mononuclear cells) were collected before and after the metformin administration that was performed in accordance with the administration schedule shown in the figure, and subjected to stimulation with 100 ng/mL PMA and 5 ionomycin in the same manner as in Example 3, followed by measurement of calcium ion increase in human CD8T cells as a result of stimulation. Specifically, peripheral blood mononuclear cells (PBMC) were separated from peripheral blood by a gravity separation method, and 1×10^6 lymphocytes were incubated for 30 minutes at 37° C. in the presence of 1 μg/mL anti-human CD8 antibody and 1 μM Fluo4/FuraRed. The incubation was followed by washing with an AIM-V medium. After the washing, AIM-V was added and unstimulated (before stimulation) lymphocytes were collected by FACSCantoII for 20 minutes, thereby collecting baseline data. Thereafter, 100 ng/mL PMA and 2 μM ionomycin were added and stimulation was applied, followed by immediate collection by FACSCantoII, thereby obtaining data after stimulation. Consequently, waveforms according to the cytoplasmic calcium concentrations were detected.

[7] = system: tumor-infiltrating CD8T cells; experiment: Memory phenotype of antigen-specific tumor-infiltrating CD8T cells and glucose (2-NBDG) uptake in each cell fraction; type: in vivo, C57BL/6 mice
Protocol: 2×10^5 MO-5 was intradermally inoculated to C57BL/6 mice; 7 days after the transplantation, free-water-drinking oral administration of 5 mg/mL metformin was started. Seven days after the administration (14 days after the transplantation), the tumor tissue was excised, and tumor-infiltrating lymphocytes were separated. After the separation, the lymphocytes were washed with 0.1% BSA/PBS, and staining was performed with antimouse CD8 antibody APC-Cy7, antimouse CD62L antibody BV421, antimouse CD44 antibody PerCP, antimouse KLRG1 antibody APC, and 400 μM 2-NBDG (2-[N-(7-nitrobenz-2-oxa-1,3-diazol-4-yl) amino]-2-deoxy-d-glucose) for 30 minutes at 4° C. After washing with 0.1% BSA/PBS, frequency and memory phenotype (CD44, CD62L, KLRG1) of antigen-specific tumor-infiltrating CD8T cells, and deoxyglucose (2-NBDG) uptake in each cell fraction were analyzed using a flow cytometer (FIG. 2).

[8] = system: glucose transporter (Glut1) in CD8TIL; experiment: Glut1 expression versus changes in glucose concentration in CD8TIL, MethA tumor; type: in vivo, BALB/c mice
Protocol: Syngeneic tumor (MethA) 2×10^6 was intradermally injected to 8-week old BALB/c mice, and administration of metformin (5 mg/mL) was started from Day 7. Three days after the treatment, the tumor-infiltrating T cells (TIL) were separated. After culture in the presence of a culture solution having a glucose concentration of 0, 0.1, 1.2, 6.1, 12.5, or 25 mM at 37° C. for 0, 1, 3, 6 hours, the cells were stained with CD3, CD8, and glucose transporter (Glut1) antibodies, followed by analysis using a flow cytometer (FIG. 9).

[9] = system: OVA-expressing B16 melanoma cell strain MO5
Protocol: The four types of groups: an untreated group (C), and, 10 days after the tumor cell inoculation, sole use of aspirin, sole use of phenformin (Phen), combined use of aspirin and phenformin, each consisting of 5 mice, were prepared. Phenformin is a biguanide-based drug, like metformin. From Day 10 of the tumor cell inoculation, phenformin contained in a feed in an amount of 0.5% was given. Further, the feed was replaced by a normal feed every four days. Specifically, a phenformin-containing feed was given only on Day 10 to Day 14, and Day 18 to Day 22. A normal feed free of phenformin was given from Day 14 to Day 18, and Day 22 to Day 26. This administration method is based on the fact that there have been fatal cases by everyday administration of phenformin due to side effects.
In contrast, aspirin (600 μg/mL) was given by free water drinking, and the water drinking was continuously performed from Day 10.

[10] = 5 mg/mL metformin free-water-drinking for 7 days, MO-5 tumor

| SMILES | Glut-1 expression in CD8TIL [1] | Glut1-positive group in tumor-infiltrating CD8T cells [2] | proportion of Glut1-positive groups with multifunctionality ([3]; metformin 5 mg/mL free-water-drinking from Day 7, PMA/Ionomycin/Monencin 6 hours) | Glut1-positive and multifunctional cell groups per tumor unit ([3]; metformin administration group) | number of CD8T cells producing three cytokines (IL-2, TNFα, IFNγ) ([4]; glucose concentration 0.1 mM) | number of CD8T cells producing three cytokines (IL-2, TNFα, IFNγ) ([4]; glucose concentration 1 mM) | multifunctionality of peripheral blood CD8T cells of cancer patients ([4]; low glucose environment 1.0 mM, treated with 10 μM metformin in advance) | intracellular calcium concentration by PMA/ionomycin stimulation ([5]; CD8T cells of lymph node (LN), vs non-administration group) | intracellular calcium concentration by PMA/ionomycin stimulation ([5]; CD8T cells of tumor tissue (Tumor), MO-5 tumor) | calcium concentration by PMA stimulation in human CD8T cells [6] | glycolysis system (2-NBDG uptake) of central memory ([7]; 5 mg/mL metformin) | glycolysis system (2-NBDG uptake) of effector (eff) and effector memory (EM) ([7]; 5 mg/mL metformin) | number and proportion of central memory [7, 10] | numbers and proportions of effector (eff) and effector memory (EM) [7, 10] | up-regulation of GLUT-1 in CD8TIL ([8]; 6-hour in-vitro culture, CD8TIL separated from metformin-administered mice) | Glut-1 expression in CD8TIL ([8]; glucose concentration 0 mM) | Glut-1 expression, proportion of CD8TIL ([8]; glucose concentration of 0.1 mM, metformin-administered mice) | side effects of everyday administration ([9]; everyday administration of phenformin) | water drinking behaviour ([9]; mouse, in vivo) | tumor growth inhibitory effects ([9]; phenformin 0.5% in feed Day 10-14 and Day 18-22, aspirin 600 μg/mL free water drinking from Day 10) |
| --- | --- | --- | --- | --- | --- | --- | --- | --- | --- | --- | --- | --- | --- | --- | --- | --- | --- | --- | --- | --- |
| CN(C)C(=N)N=C(N)N [metformin] | very high level | conspicuous increase; also recorded: increased | increased | increased | no difference | significantly increased | recovered | the degree of increase was greater | greatly increased | increase | deactivates the glycolysis system | activates the glycolysis system | reduces | increased | significant up-regulation | does not occur | 14.3% |  |  |  |
| [H]/N=C(/N)N/C(=N/[H])NCCc1ccccc1 [phenformin] |  |  |  |  |  |  |  |  |  |  |  |  |  |  |  |  |  | fatal cases | the mice stopped drinking water | strong tumor growth inhibitory effects |
